Results: US8552202B2, “Furo[3, 2-B] pyrrol-3-ones as cathespin S inhibitors” (Amura Therapeutics Limited, priority 2008, dated 2013)

What was measured:
Format in all cases: biochemical
[1] = target: Human recombinant cathepsin V (Homo sapiens (Human), UniProt O60911); assay: In vitro cathepsin Ki inhibition measurements, cathepsin V; settings: read-out: In vitro Ki (nM) vs Cath V
Experimental: (§1) Stock solutions of substrate or inhibitor were made up to 10 mM in 100% dimethylsulfoxide (DMSO) (Rathburns, Glasgow, U.K.) and diluted as appropriately required. In all cases the DMSO concentration in the assays was maintained at less than 1% (vol./vol.). The equilibrium inhibition constants (Ki^ss) for each compound were measured under steady-state conditions monitoring enzyme activity as a function of inhibitor concentration. The values were calculated on the assumption of pure competitive behaviour (Cornish-Bowden, A. Fundamentals of enzyme kinetics Portland Press; 1995, 93-128.).
Human recombinant cathepsin V (0.25 nM final, Merck Biosciences) was routinely assayed in 100 mM sodium acetate; pH 5.5 containing 10 mM L-cysteine, 0.001% (vol./vol.) zwittergent 3-12 (Merck Biosciences) and 5 μM Z-Leu-Arg-AMC (KM=0.5 μM) (Amura).
(§2) The apparent inhibition constant (Ki) for each compound was determined on the basis that inhibition was reversible and occurred by a pure-competitive mechanism. The Ki values were calculated, from the dependence of enzyme activity as a function of inhibitor concentration, by direct regression analysis (Prism v 3.02) using Equation 2 (Cornish-Bowden, A., 1995.).
(§3) In situations where the apparent dissociation constant (Ki^app) approached the enzyme concentrations, the Ki^app values were calculated using a quadratic solution in the form described by Equation 3 (Morrison, J. F. Trends Biochem. Sci., 7, 102-105, 1982; Morrison, J. F. Biochim. Biophys. Acta. 185, 269-286, 1969: Stone, S. R. and Hofsteenge, J. Biochemistry, 25, 4622-4628, 1986).
(§4) Curves were fitted by non-linear regression analysis (Prism) using a fixed value for the enzyme concentration. Equation 4 was used to account for the substrate kinetics, where ‘Ki’ is the inhibition constant, ‘[So]’ is the initial substrate concentration and ‘KM^app’ is the apparent macroscopic binding (Michaelis) constant for the substrate (Morrison, 1982).

[2] = target: Human recombinant cathepsin S (Homo sapiens (Human), UniProt P25774); assay: In vitro cathepsin Ki inhibition measurements, cathepsin S; settings: for Ki: read-out: In vitro Ki (nM) vs Cath S; for selectivity against other mammalian cathepsins (in words): cathepsin S over other mammalian cathepsins; for less potent verses cathepsin S: relative to EXAMPLE 2
Experimental: as §1, §2, §3, §4

Human liver cathepsin B = Human liver cathepsin B (Homo sapiens (Human), UniProt P07858); assay: In vitro cathepsin Ki inhibition measurements, cathepsin B; settings: read-out: In vitro Ki (nM) vs Cath B
Experimental: as §1
Human liver cathepsin B (0.25 nM final; Merck Biosciences), was routinely assayed in 10 mM bis-tris propane; pH 6.5 containing 1 mM EDTA, 5 mM 2-mercaptoethanol, 1 mM CaCl2 and 60 μM Z-Phe-Arg-AMC ([S]=KM) (Bachem, Weil am Rhein, Germany).
as §2, §3
as §4, with “In Equation 3 ‘vi’ is the observed residual activity, ‘F’ is the difference between the maximum activity (i.e. in the absence of inhibitor) and minimum enzyme activity, ‘Eo’ is the total enzyme concentration, ‘Ki^app’ is the apparent dissociation constant and ‘Io’ is the inhibitor concentration. Curves” for “Curves”

Human liver cathepsin L = Human liver cathepsin L (Homo sapiens (Human), UniProt P07711); assay: In vitro cathepsin Ki inhibition measurements, cathepsin L; settings: read-out: In vitro Ki (nM) vs Cath L
Experimental: as §1
Human liver cathepsin L (0.25 nM final, Athens Research and Technology, GA, USA) was routinely assayed in 10 mM bis-tris propane; pH 6.5 containing 1 mM EDTA, 5 mM 2-mercaptoethanol, 1 mM CaCl2 and 4 μM Ac-Phe-Arg-AMC ([S]=KM) (Bachem).
as §2, §3, §4

[3] = target: Human recombinant cathepsin K (Homo sapiens (Human), UniProt P43235); assay: In vitro cathepsin Ki inhibition measurements, cathepsin K; settings: read-out: In vitro Ki (nM) vs Cath K
Experimental: as §1
Human recombinant cathepsin K (0.25 nM final; B. Turk, Josef, Stefan Institute, Ljubljana, Slovenia), was routinely assayed in 100 mM sodium acetate; pH 5.5 containing 1 mM EDTA, 10 mM L-cysteine and 1.8 μM Z-Leu-Arg-AMC ([S]=KM).
as §2, §3, §4

Human recombinant cathepsin S, sequence (P25774 115-331): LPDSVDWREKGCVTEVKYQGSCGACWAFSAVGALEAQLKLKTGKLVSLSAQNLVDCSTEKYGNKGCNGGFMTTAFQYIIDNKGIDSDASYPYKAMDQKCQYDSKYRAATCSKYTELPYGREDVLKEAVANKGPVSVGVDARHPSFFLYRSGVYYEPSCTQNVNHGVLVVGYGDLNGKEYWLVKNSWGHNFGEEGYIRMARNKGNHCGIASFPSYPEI
Human recombinant cathepsin K, sequence (P43235 115-329): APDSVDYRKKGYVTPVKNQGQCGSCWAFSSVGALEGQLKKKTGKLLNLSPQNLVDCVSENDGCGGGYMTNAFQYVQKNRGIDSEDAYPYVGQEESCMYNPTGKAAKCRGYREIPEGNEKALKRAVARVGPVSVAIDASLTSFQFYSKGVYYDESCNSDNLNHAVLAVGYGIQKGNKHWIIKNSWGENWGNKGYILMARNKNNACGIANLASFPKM
Human recombinant cathepsin V, sequence (O60911 114-334): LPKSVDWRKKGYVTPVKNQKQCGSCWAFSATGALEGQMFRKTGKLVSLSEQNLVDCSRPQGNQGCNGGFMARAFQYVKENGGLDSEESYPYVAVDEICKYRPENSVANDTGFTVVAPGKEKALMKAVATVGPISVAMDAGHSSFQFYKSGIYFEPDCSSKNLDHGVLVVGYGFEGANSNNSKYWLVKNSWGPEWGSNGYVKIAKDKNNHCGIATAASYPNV
Human liver cathepsin L, sequence (P07711 114-333): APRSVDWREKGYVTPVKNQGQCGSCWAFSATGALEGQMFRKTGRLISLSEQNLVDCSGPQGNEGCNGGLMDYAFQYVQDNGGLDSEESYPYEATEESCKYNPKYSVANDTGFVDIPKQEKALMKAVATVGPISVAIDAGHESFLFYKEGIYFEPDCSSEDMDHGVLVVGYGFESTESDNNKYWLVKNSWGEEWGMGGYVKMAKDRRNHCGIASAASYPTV

For C[C@H]1CC[C@H]([C@H](NC(=O)c2cccc(-n3cnnn3)c2)C(=O)N2CC[C@H]3OCC(=O)[C@H]32)CC1 [Compound 10], the Ki [1] was > 10000 nM, the “selectivity verses cathepsin K” value ([2]; cathepsin S over cathepsin K) was > 125 fold and the Ki [2] was 79 nM. The “improvement in in vitro potency against human cathepsin S” value (“improvement in in vitro potency” for short) ([2]; relative to Compound 7) was 2.2 fold, the Ki (Human liver cathepsin B) was > 10000 nM and the Ki (Human liver cathepsin L) was > 10000 nM. The Ki [3] was > 10000 nM.

With C[C@H]1CC[C@H]([C@H](NC(=O)c2cccc(-n3cnnn3)c2)C(=O)N2C[C@H](F)[C@H]3OCC(=O)[C@H]32)CC1 [Compound 11] the Ki [1] was > 10000 nM, the “selectivity against other mammalian cathepsins (in words)” value (from here on “selectivity … (in words)”) [2] was “high selectivity” and the Ki [2] was 24 nM. The “less potent verses cathepsin S” value [2] was 11 fold, the Ki (Human liver cathepsin B) was > 10000 nM and the Ki (Human liver cathepsin L) was > 10000 nM. The Ki [3] was > 10000 nM.

C[C@H]1CC[C@H]([C@H](NC(=O)c2cccc(-n3cnnn3)c2)C(=O)N2C[C@@H](Cl)[C@H]3OCC(=O)[C@H]32)CC1 [Compound 12] was tested, and the Ki [1] was > 10000 nM, the “selectivity … (in words)” value [2] was “high selectivity” and the Ki [2] was 55 nM. For the same molecule, the “less potent verses cathepsin S” value [2] was 25 fold, the Ki (Human liver cathepsin B) was > 10000 nM and the Ki (Human liver cathepsin L) was > 10000 nM. The Ki [3] was > 10000 nM.

O=C(N[C@H](C(=O)N1C[C@H](Cl)[C@H]2OCC(=O)[C@H]21)C1CCCCC1)c1cccc(-n2ccnc2)c1 [Compound 13] gave a Ki [1] of 170 nM, a Ki (Human liver cathepsin B) of 440 nM and a Ki (Human liver cathepsin L) of 270 nM.

O=C(N[C@H](C(=O)N1C[C@@H](Cl)[C@H]2OCC(=O)[C@H]21)C1CCCCC1)c1cccc(-n2ccnc2)c1 [Compound 14] showed a Ki [1] of 1800 nM, a Ki (Human liver cathepsin B) of 5000 nM and a Ki (Human liver cathepsin L) of 1900 nM.

C[C@H]1CC[C@H]([C@H](NC(=O)c2cccc(-n3ccnc3)c2)C(=O)N2C[C@H](F)[C@H]3OCC(=O)[C@H]32)CC1 [Compound 15] was tested, and the Ki [1] was > 10000 nM, the Ki [2] was 15 nM and the Ki (Human liver cathepsin B) was > 10000 nM. The Ki (Human liver cathepsin L) was > 10000 nM and the Ki [3] was > 10000 nM.

With C[C@H]1CC[C@H]([C@H](NC(=O)c2ccccc2)C(=O)N2C[C@H](Cl)[C@H]3OCC(=O)[C@H]32)CC1 [EXAMPLE 1, N—((S)-2-((3aS,6S,6aS)-6-chloro-3-oxodihydro-2H-furo[3,2-b]pyrrol-4(5H,6H,6aH)-yl)-1-((1r,4S)-4-methylcyclohexyl)-2-oxoethyl)benzamide] the Ki [1] was > 10000 nM, the “selectivity … (in words)” value [2] was “high selectivity” and the Ki [2] was 5 nM. The “improvement in in vitro potency” value ([2]; relative to Compound 1) was 45 fold, the “improvement in in vitro potency” value ([2]; relative to prior art compound (38)) was 111 fold and the Ki (Human liver cathepsin B) was > 10000 nM. The Ki (Human liver cathepsin L) was 1400 nM and the Ki [3] was > 10000 nM.

C[C@H]1CC[C@H]([C@H](NC(=O)c2cccc(-n3cnnn3)c2)C(=O)N2C[C@H](Cl)[C@H]3OCC(=O)[C@H]32)CC1 [EXAMPLE 2, N—((S)-2-((3aS,6S,6aS)-6-chloro-3-oxodihydro-2H-furo[3,2-b]pyrrol-4(5H,6H,6aH)-yl)-1-((1r,4S)-4-methylcyclohexyl)-2-oxoethyl)-3-(1H-tetrazol-1-yl)benzamide] was tested, and the Ki [1] was > 10000 nM, the “selectivity … (in words)” value [2] was “high selectivity” and the Ki [2] was 2.2 nM. For the same molecule, the “improvement in in vitro potency” value ([2]; relative to Compound 7) was 77 fold, the Ki (Human liver cathepsin B) was > 10000 nM and the Ki (Human liver cathepsin L) was > 10000 nM. The Ki [3] was > 8000 nM.

In the case of CC1(C)CCC([C@H](NC(=O)c2cccc(-n3cnnn3)c2)C(=O)N2C[C@H](Cl)[C@H]3OCC(=O)[C@H]32)CC1 [EXAMPLE 3, N—((S)-2-((3aS,6S,6aS)-6-chloro-3-oxodihydro-2H-furo[3,2-b]pyrrol-4(5H,6H,6aH)-yl)-1-(4,4-dimethylcyclohexyl)-2-oxoethyl)-3-(1H-tetrazol-1-yl)benzamide], the Ki [1] is reported as 1700 nM, the “selectivity … (in words)” value [2] is reported as “high selectivity” and the Ki [2] is reported as 12 nM. For the same molecule, the “improvement in in vitro potency” value ([2]; relative to Compound 7) was 15 fold, the Ki (Human liver cathepsin B) was > 10000 nM and the Ki (Human liver cathepsin L) was > 10000 nM. The Ki [3] was > 10000 nM.

For O=C(N[C@@H](CC1CCCCC1)C(=O)N1CC[C@H]2OCC(=O)[C@H]21)c1ccccc1 [compound (38), reference compound], the Ki [1] was 5700 nM, the Ki (Human liver cathepsin B) was > 10000 nM and the Ki (Human liver cathepsin L) was 1700 nM. For the same molecule, the Ki [3] was > 4000 nM.
